Laboratory results reported in the supplement of paper PMC8967900.

Experiments:
Assay in all cases: selective drug sensitivity score (sDSS, relative to normal bone marrow) (sDSS (score)); higher = more potent and effective on the cell line relative to normal bone marrow cells
Conditions in all cases: 72 h
RPMI-8402 = test system: RPMI-8402
TMD5 = test system: TMD5
HPB-ALL = test system: HPB-ALL
NALL-1 = test system: NALL-1
MHH-CALL-4 = test system: MHH-CALL-4
SEM cells = test system: SEM cells
RCH-ACV = test system: RCH-ACV
LC4-1 = test system: LC4-1
ALL-PO = test system: ALL-PO
PF-382 = test system: PF-382
DND-41 = test system: DND-41
380 = test system: 380
KASUMI-10 = test system: KASUMI-10
CCRF-CEM = test system: CCRF-CEM
TANOUE = test system: TANOUE
KARPAS-45 = test system: KARPAS-45
KASUMI-2 = test system: KASUMI-2
MHH-CALL-2 = test system: MHH-CALL-2
REH = test system: REH
ALL-SIL = test system: ALL-SIL
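Further: ALL cell lines in 384-well plates, five doses spanning 10,000-fold, each plate scaled between vehicle and 100 µmol/L benzalkonium chloride controls, sDSS an adapted area-under-curve metric.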

Compound | selective drug sensitivity score (RPMI-8402) | selective drug sensitivity score (TMD5) | selective drug sensitivity score (HPB-ALL) | selective drug sensitivity score (NALL-1) | selective drug sensitivity score (MHH-CALL-4) | selective drug sensitivity score (SEM cells) | selective drug sensitivity score (RCH-ACV) | selective drug sensitivity score (LC4-1) | selective drug sensitivity score (ALL-PO) | selective drug sensitivity score (PF-382) | selective drug sensitivity score (DND-41) | selective drug sensitivity score 380 | selective drug sensitivity score (KASUMI-10) | selective drug sensitivity score (CCRF-CEM) | selective drug sensitivity score (TANOUE) | selective drug sensitivity score (KARPAS-45) | selective drug sensitivity score (KASUMI-2) | selective drug sensitivity score (MHH-CALL-2) | selective drug sensitivity score (REH) | selective drug sensitivity score (ALL-SIL)
CCN(CC)CCNC(=O)c1c(C)[nH]c(/C=C2\C(=O)Nc3ccc(-c4csc(-c5ccccc5)n4)cc32)c1C [Amcasertib] (top concentration 10000 nM) | -1.5 | -1.7 | 4.3 | 5.2 | 2.2 | 3 | 3.3 | 0.9 | 6.7 | 2.7 | 6.8 | 7.8 | 5.2 | 6.7 | -2.6 | 6.4 | 0.8 | 4.9 | 3.6 | 3.6
CN(C(=O)c1ccc(F)cc1C(F)(F)F)C1CCN(c2nnc(-c3ccnn3C)c3ccccc23)CC1 [Taladegib] (top concentration 10000 nM) | 2.38 | -1.02 | 7.08 | -1.12 | -1.12 | -1.12 | -0.52 | 4.58 | -0.52 | 0.78 | -1.12 | 4.08 | -1.12 | -0.82 | 4.98 | -0.92 | 11 | 3.18 | 3.58 | 0.08
O=C(Nc1ccc2[nH]nc(-c3ccncc3)c2c1)[C@@H]1CCN(CC(=O)N2CCN(c3ccc(-c4ncccn4)cc3)CC2)C1 (top concentration 10000 nM) | -1.64 | -0.34 | -0.44 | -4.14 | 3.96 | -2.64 | -0.44 | 4.26 | 3.76 | 0.56 | 4.46 | 1.66 | -0.74 | -0.54 | -4.64 | -0.84 | 6.16 | 1.26 | 4.86 | 0.16
COC12C(COC(N)=O)C3=C(C(=O)C(C)=C(N)C3=O)N1CC1NC12 (stereo in doubt) [Mitomycin_C] (top concentration 10000 nM) | -2.86 | -1.96 | -1.16 | -2.86 | -1.66 | 3.84 | 4.84 | 2.34 | -0.76 | -2.86 | -2.86 | -1.36 | -2.86 | -2.86 | -2.86 | -2.86 | 4.24 | 1.54 | 3.74 | -2.86
C[C@@H]1COCCN1c1cc(C2([S@](C)(=N)=O)CC2)nc(-c2cc[nH]c3nccc2-3)n1 [AZD6738] (top concentration 25000 nM) | 8.98 | 5.88 | 7.38 | 7.68 | 5.48 | 17.2 | 15.9 | 8.48 | 4.58 | 4.68 | 8.58 | 19.5 | 8.08 | 10.8 | -6.12 | 8.28 | 1.38 | 13.2 | 13.1 | 8.88
Nc1ccn([C@@H]2O[C@H](CO)[C@@H](O)C2(F)F)c(=O)n1 [Gemcitabine] (top concentration 1000 nM) | 9.56 | -7.84 | 0.96 | 10.3 | 12.9 | 24.9 | 18.5 | 16.7 | 8.06 | 13.5 | 9.26 | 23.5 | 16.8 | 14.5 | -7.34 | -7.44 | 15.1 | 21.6 | 13 | 12.1
O=C(O)c1ccc2c(c1)nc(Nc1cccc(Cl)c1)c1ccncc12 [Silmitasertib] (top concentration 10000 nM) | 3.3 | -2.2 | 1.9 | 2.2 | 2.2 | 1.4 | 0.8 | 3.9 | 1.9 | 2 | 3.6 | 7.7 | 3.8 | 4.1 | -0.3 | 4.1 | -1.4 | 6.6 | 4.8 | 6.2
C[C@H](Nc1ncnc2nc[nH]c12)c1cc2cccc(Cl)c2c(=O)n1-c1ccccc1 [Duvelisib] (top concentration 500 nM) | -0.94 | -0.94 | -0.94 | -0.94 | -0.34 | -0.54 | 21 | -0.94 | 0.86 | -0.94 | -0.14 | 1.46 | -0.94 | 4.36 | -0.94 | -0.44 | 9.86 | -0.94 | -0.94 | -0.94
Nc1ncnc2c1c(-c1cccc(OCc3ccccc3)c1)cn2[C@H]1C[C@@H](CN2CCC2)C1 [NVP-AEW541] (top concentration 10000 nM) | -1.32 | -7.62 | 1.58 | -0.42 | 0.08 | 1.38 | 1.18 | -0.92 | 3.98 | -1.52 | -1.12 | 4.48 | 3.58 | -2.42 | -6.02 | -0.92 | -3.62 | 3.28 | 0.88 | 4.58
COc1cc2c(cc1-c1c(C)noc1C)ncc1[nH]c(=O)n([C@H](C)c3ccccn3)c12 [I-BET151] (top concentration 10000 nM) | 4.36 | -3.54 | 1.36 | -0.14 | 5.96 | 10.5 | 12.3 | 7.26 | 6.36 | 4.06 | 0.86 | -7.44 | 5.66 | 0.96 | -2.84 | 9.16 | -2.94 | 6.96 | -2.24 | -2.14
Cc1[nH]nc(C(F)(F)F)c1Cc1sc2c(c1C(=O)N1C[C@](C)(O)CO1)c(=O)n(C)c(=O)n2C(C)C [AZD3965] (top concentration 1000 nM) | 12.6 | 2.6 | 0.1 | 3.8 | 0 | 0 | 0 | 1.5 | 3.8 | 1.7 | 0 | 4.2 | 0 | 0.3 | 2.6 | 0 | 3.8 | 1.4 | 3.6 | 0
COc1cc(Nc2ncc(F)c(Nc3ccc4c(n3)NC(=O)C(C)(C)O4)n2)cc(OC)c1OC [Tamatinib] (top concentration 10000 nM) | 0.68 | -5.42 | -5.42 | -3.82 | -4.62 | 12 | 14 | 1.28 | 9.98 | -4.32 | -1.82 | -5.42 | 8.58 | -5.42 | -5.32 | -2.92 | -5.42 | -4.92 | -2.22 | -5.42
O=C(/C=C\n1cnc(-c2cc(C(F)(F)F)cc(C(F)(F)F)c2)n1)NNc1cnccn1 [Selinexor] (top concentration 10000 nM) | 12.3 | 0.38 | 3.78 | 2.98 | 5.18 | 5.38 | 13.7 | 7.78 | 13.5 | 9.78 | 14.6 | 18.1 | 3.78 | 9.38 | -7.02 | 10.9 | 16.7 | 7.48 | 10.3 | 9.88
O=C(/C=C/c1cccc(S(=O)(=O)Nc2ccccc2)c1)NO [Belinostat] (top concentration 10000 nM) | 7.3 | 6.3 | 8.4 | 2.4 | 7.5 | 7.6 | 14.3 | 9.7 | 11.4 | 8.4 | 7.2 | 16.2 | 7.6 | 8.7 | -4.5 | 14.8 | 17.4 | 11 | 5.1 | 8.9
CC(C)(C)c1cc(NC(=O)Nc2ccc(Oc3ccnc4[nH]c(=O)cnc34)cc2F)n(-c2ccccc2)n1 (top concentration 25000 nM) | -3.18 | 2.32 | 1.12 | -0.38 | 0.42 | 11.4 | 3.82 | -1.48 | 5.72 | -3.88 | -0.78 | -4.68 | 5.62 | -2.18 | -5.68 | -1.48 | -1.38 | -1.48 | -0.78 | 16.1
COc1c(C)cnc(Cn2cnc3c(Cl)nc(N)nc32)c1C [BIIB021] (top concentration 10000 nM) | 0.68 | 1.58 | 3.58 | 1.08 | 1.28 | 7.38 | 9.58 | 0.98 | 5.88 | 5.78 | 8.58 | 7.68 | 8.78 | 7.88 | -8.12 | 8.88 | 3.88 | 2.48 | 5.68 | 5.88
CC(C)Oc1ccc(-c2nn([C@@H](C)c3oc4ccc(F)cc4c(=O)c3-c3cccc(F)c3)c3ncnc(N)c23)cc1F [TGR-1202] (top concentration 2500 nM) | -2.06 | -2.56 | -2.56 | 1.24 | -0.06 | -2.56 | 9.14 | -1.76 | 3.84 | -2.56 | 2.74 | -2.56 | -2.56 | -1.16 | -2.56 | -2.36 | -2.36 | -0.06 | -1.76 | -0.36
